Assay results from US20210045385A1, “PYRIDAZINONE-SUBSTITUTED KETOXIMES AS HERBICIDES” (FMC Corporation, priority 2018, published 2021).

How the values were obtained:
Type in all cases: in vivo
[1] = tested on: Italian ryegrass (Lolium multiflorum); test: Test A preemergence, visual plant response rating; conditions: for Ryegrass, Italian plant response rating: 125 g ai/ha, preemergence, 0 to 100 scale, 0 no effect, 100 complete control; for Ryegrass, Italian plant response rating (0 to 100 scale): 500 g ai/ha Preemergence, approx. 10 days
Summary of the method: (§1)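 Formulated in a non-phytotoxic solvent mixture including surfactant, each test chemical was sprayed onto the soil surface after sowing, or onto seedlings 2 to 10 cm high. Roughly 10 days later, plants were compared with untreated controls and rated for injury from 0 (no effect) to 100 (complete control).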

[2] = tested on: barnyardgrass (Echinochloa crus-galli); test: Test A preemergence, visual plant response rating; conditions: for Barnyardgrass plant response rating: 125 g ai/ha, preemergence, 0 to 100 scale, 0 no effect, 100 complete control; for Barnyardgrass plant response rating (0 to 100 scale): 500 g ai/ha Preemergence, approx. 10 days
Summary of the method: as §1

[3] = tested on: foxtail, giant (giant foxtail, Setaria faberii); test: Test A preemergence, visual plant response rating; conditions: for Foxtail, Giant plant response rating: 125 g ai/ha, preemergence, 0 to 100 scale, 0 no effect, 100 complete control; for Foxtail, Giant plant response rating (0 to 100 scale): 500 g ai/ha Preemergence, approx. 10 days
Summary of the method: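 Ratings use a 0–100 visual scale (100 = complete control) against untreated controls, scored about 10 days after greenhouse treatment. Test chemicals were formulated in surfactant-containing non-phytotoxic solvent and applied either as soil spray after planting (preemergence) or onto one- to two-leaf, 2–10 cm plants (postemergence).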

kochia (Kochia scoparia) [4] = test: Test A preemergence, visual plant response rating; conditions: for Kochia plant response rating: 125 g ai/ha, preemergence, 0 to 100 scale, 0 no effect, 100 complete control; for Kochia plant response rating (0 to 100 scale): 500 g ai/ha Preemergence, approx. 10 days
Summary of the method: as §1

[5] = tested on: pigweed (Amaranthus retroflexus); test: Test A preemergence, visual plant response rating; conditions: for Pigweed plant response rating: 125 g ai/ha, preemergence, 0 to 100 scale, 0 no effect, 100 complete control; for Pigweed plant response rating (0 to 100 scale): 500 g ai/ha Preemergence, approx. 10 days
Summary of the method: as §1

[6] = tested on: ragweed (common ragweed, Ambrosia elatior); test: Test A preemergence, visual plant response rating; conditions: for Ragweed plant response rating: 125 g ai/ha, preemergence, 0 to 100 scale, 0 no effect, 100 complete control; for Ragweed plant response rating (0 to 100 scale): 500 g ai/ha Preemergence, approx. 10 days
Summary of the method: as §1

[7] = tested on: Italian ryegrass (Lolium multiflorum); test: Test A postemergence, visual plant response rating
Summary of the method: as §1

[8] = tested on: barnyardgrass (Echinochloa crus-galli); test: Test A postemergence, visual plant response rating; conditions: for Barnyardgrass plant response rating (0 to 100 scale): 500 g ai/ha, postemergence, 0 is no effect, 100 is complete control; for Barnyardgrass plant response rating: Postemergence, 125 g ai/ha, 0 to 100 scale (0 no effect, 100 complete control)
Summary of the method: as §1

[9] = tested on: blackgrass (Alopecurus myosuroides); test: Test A postemergence, visual plant response rating; conditions: for Blackgrass plant response rating (0 to 100 scale): 500 g ai/ha, postemergence, 0 is no effect, 100 is complete control; for Blackgrass plant response rating: Postemergence, 125 g ai/ha, 0 to 100 scale (0 no effect, 100 complete control)
Summary of the method: as §1

corn (Zea mays) = test: Test A postemergence, visual plant response rating; conditions: for Corn plant response rating (0 to 100 scale): 500 g ai/ha, postemergence, 0 is no effect, 100 is complete control; for Corn plant response rating: Postemergence, 125 g ai/ha, 0 to 100 scale (0 no effect, 100 complete control)
Summary of the method: as §1

[10] = tested on: foxtail, giant (giant foxtail, Setaria faberii); test: Test A postemergence, visual plant response rating; conditions: for Foxtail, Giant plant response rating (0 to 100 scale): 500 g ai/ha, postemergence, 0 is no effect, 100 is complete control; for Foxtail, Giant plant response rating: Postemergence, 125 g ai/ha, 0 to 100 scale (0 no effect, 100 complete control)
Summary of the method: as §1

[11] = tested on: galium (catchweed bedstraw, Galium aparine); test: Test A postemergence, visual plant response rating; conditions: for Galium plant response rating (0 to 100 scale): 500 g ai/ha, postemergence, 0 is no effect, 100 is complete control; for Galium plant response rating: Postemergence, 125 g ai/ha, 0 to 100 scale (0 no effect, 100 complete control)
Summary of the method: as §1

kochia (Kochia scoparia) [12] = test: Test A postemergence, visual plant response rating; conditions: for Kochia plant response rating (0 to 100 scale): 500 g ai/ha, postemergence, 0 is no effect, 100 is complete control; for Kochia plant response rating: Postemergence, 125 g ai/ha, 0 to 100 scale (0 no effect, 100 complete control)
Summary of the method: as §1

[13] = tested on: pigweed (Amaranthus retroflexus); test: Test A postemergence, visual plant response rating; conditions: for Pigweed plant response rating (0 to 100 scale): 500 g ai/ha, postemergence, 0 is no effect, 100 is complete control; for Pigweed plant response rating: Postemergence, 125 g ai/ha, 0 to 100 scale (0 no effect, 100 complete control)
Summary of the method: as §1

[14] = tested on: ragweed (common ragweed, Ambrosia elatior); test: Test A postemergence, visual plant response rating; conditions: for Ragweed plant response rating (0 to 100 scale): 500 g ai/ha, postemergence, 0 is no effect, 100 is complete control; for Ragweed plant response rating: Postemergence, 125 g ai/ha, 0 to 100 scale (0 no effect, 100 complete control)
Summary of the method: as §1

[15] = tested on: wheat (Triticum aestivum); test: Test A postemergence, visual plant response rating; conditions: for Wheat plant response rating: 0 to 100 scale (0 no effect, 100 complete control)
Summary of the method: as §1

[16] = tested on: barnyardgrass (Echinochloa crus-galli); test: Test B flooded paddy test, visual plant response rating; conditions: 250 g ai/ha, Flood, applied to paddy water, 2-leaf stage, evaluated after 13 to 15 days
Summary of the method: (§2)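 At the two-leaf stage, seedlings received compound applied to paddy water flooded 3 cm above soil, a level sustained until assessment. Greenhouse incubation lasted 13 to 15 days before visual comparison with control plants.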

[17] = tested on: ducksalad (Heteranhera limosa); test: as above; conditions: 250 g ai/ha, Flood, applied to paddy water, 2-leaf stage, evaluated after 13 to 15 days
Summary of the method: as §2

rice (Oryza sativa) = test: as above; conditions: 250 g ai/ha, Flood, applied to paddy water, 2-leaf stage, evaluated after 13 to 15 days
Summary of the method: as §2

[18] = tested on: sedge, umbrella (small-flower umbrella sedge, Cyperus difformis); test: as above; conditions: 250 g ai/ha, Flood, applied to paddy water, 2-leaf stage, evaluated after 13 to 15 days
Summary of the method: as §2

[19] = 500 g ai/ha, postemergence, 0 is no effect, 100 is complete control
[20] = Postemergence, rate not given, approx. 10 days

| Compound | Ryegrass, Italian plant response rating [1] | Ryegrass, Italian plant response rating (0 to 100 scale) [1] | Barnyardgrass plant response rating [2] | Barnyardgrass plant response rating (0 to 100 scale) [2] | Foxtail, Giant plant response rating [3] | Foxtail, Giant plant response rating (0 to 100 scale) [3] | Kochia plant response rating (kochia (Kochia scoparia) [4]) | Kochia plant response rating (0 to 100 scale) (kochia (Kochia scoparia) [4]) | Pigweed plant response rating [5] | Pigweed plant response rating (0 to 100 scale) [5] | Ragweed plant response rating [6] | Ragweed plant response rating (0 to 100 scale) [6] | Ryegrass, Italian plant response rating (0 to 100 scale) [7, 19] | Barnyardgrass plant response rating (0 to 100 scale) [8] | Barnyardgrass plant response rating [8] | Blackgrass plant response rating (0 to 100 scale) [9] | Blackgrass plant response rating [9] | Corn plant response rating (0 to 100 scale) (corn (Zea mays)) | Corn plant response rating (corn (Zea mays)) | Foxtail, Giant plant response rating (0 to 100 scale) [10] | other results |
| --- | --- | --- | --- | --- | --- | --- | --- | --- | --- | --- | --- | --- | --- | --- | --- | --- | --- | --- | --- | --- | --- |
| CO/N=C(/c1ccsc1C)c1c(O)c(C)nn(C)c1=O [Compound 135] | 0 | 0 | 0 | 0 | 0 | 0 | 0 | 10 | 0 | 20 | 0 | 10 | 30 | 0 | 0 | 0 | 0 | 0 | 0 | 0 | Ryegrass, Italian plant response rating ([7]; Postemergence, 125 g ai/ha, 0 to 100 scale (0 no effect, 100 complete control)): 0; Foxtail, Giant plant response rating [10]: 0; Galium plant response rating (0 to 100 scale) [11]: 40; Galium plant response rating [11]: 30; Kochia plant response rating (0 to 100 scale) (kochia (Kochia scoparia) [12]): 10; Kochia plant response rating (kochia (Kochia scoparia) [12]): 0; Pigweed plant response rating (0 to 100 scale) [13]: 30; Pigweed plant response rating [13]: 20; Ragweed plant response rating (0 to 100 scale) [14]: 20; Ragweed plant response rating [14]: 0; Wheat plant response rating (0 to 100 scale) [15, 19]: 0; Wheat plant response rating ([15]; Postemergence, 125 g ai/ha): 0; Plant response rating, Barnyardgrass (0 to 100 scale, 0 is no effect, 100 is complete control) [16]: 0; Plant response rating, Ducksalad (0 to 100 scale, 0 is no effect, 100 is complete control) [17]: 0; Plant response rating, Rice (0 to 100 scale, 0 is no effect, 100 is complete control) (rice (Oryza sativa)): 0; Plant response rating, Sedge, Umbrella (0 to 100 scale, 0 is no effect, 100 is complete control) [18]: 0 |
| CO/N=C(/c1cscc1C)c1c(O)c(C)nn(C)c1=O [Compound 140] | 20 | 50 | 0 | 0 | 0 | 10 | 0 | 0 | 0 | 90 | 10 | 50 | 60 | 20 | 0 | 0 | 0 | 20 | 10 | 30 | Ryegrass, Italian plant response rating (0 to 100 scale) [7, 20]: 10; Foxtail, Giant plant response rating [10]: 10; Galium plant response rating (0 to 100 scale) [11]: 70; Galium plant response rating [11]: 70; Kochia plant response rating (0 to 100 scale) (kochia (Kochia scoparia) [12]): 60; Kochia plant response rating (kochia (Kochia scoparia) [12]): 20; Pigweed plant response rating (0 to 100 scale) [13]: 90; Pigweed plant response rating [13]: 80; Ragweed plant response rating (0 to 100 scale) [14]: 70; Ragweed plant response rating [14]: 50; Wheat plant response rating (0 to 100 scale) [15, 19]: 0; Wheat plant response rating (0 to 100 scale) ([15]; Postemergence, approx. 10 days): 0; Plant response rating, Barnyardgrass (0 to 100 scale, 0 is no effect, 100 is complete control) [16]: 0; Plant response rating, Ducksalad (0 to 100 scale, 0 is no effect, 100 is complete control) [17]: 0; Plant response rating, Rice (0 to 100 scale, 0 is no effect, 100 is complete control) (rice (Oryza sativa)): 0; Plant response rating, Sedge, Umbrella (0 to 100 scale, 0 is no effect, 100 is complete control) [18]: 0 |
| CON=C(c1ccc(C)o1)c1c(O)c(C)nn(C)c1=O [Compound 141] | 0 | 20 | 0 | 0 | 0 | 0 | 0 | 0 | 0 | 0 | 0 | 0 | 0 | 0 | 0 | 30 | 10 | 0 | 0 | 0 | Ryegrass, Italian plant response rating (0 to 100 scale) [7, 20]: 0; Foxtail, Giant plant response rating [10]: 0; Galium plant response rating (0 to 100 scale) [11]: 10; Galium plant response rating [11]: 0; Kochia plant response rating (0 to 100 scale) (kochia (Kochia scoparia) [12]): 0; Kochia plant response rating (kochia (Kochia scoparia) [12]): 0; Pigweed plant response rating (0 to 100 scale) [13]: 0; Pigweed plant response rating [13]: 0; Ragweed plant response rating (0 to 100 scale) [14]: 0; Ragweed plant response rating [14]: 0; Wheat plant response rating ([15]; Postemergence, 500 g ai/ha): 0; Wheat plant response rating (0 to 100 scale) ([15]; Postemergence, approx. 10 days): 0; Plant response rating, Barnyardgrass (0 to 100 scale, 0 is no effect, 100 is complete control) [16]: 0; Plant response rating, Ducksalad (0 to 100 scale, 0 is no effect, 100 is complete control) [17]: 0; Plant response rating, Rice (0 to 100 scale, 0 is no effect, 100 is complete control) (rice (Oryza sativa)): 0; Plant response rating, Sedge, Umbrella (0 to 100 scale, 0 is no effect, 100 is complete control) [18]: 0 |
| CO/N=C(/c1c(O)c(C)nn(C)c1=O)c1ccc(OC)c2ccccc12 [Compound 142] | 0 | 20 | 0 | 50 | 10 | 60 | 0 | 0 | 0 | 0 | 0 | 20 | 70 | 10 | 10 | 80 | 30 | 30 | 0 | 30 | Ryegrass, Italian plant response rating (0 to 100 scale) [7, 20]: 0; Foxtail, Giant plant response rating [10]: 20; Galium plant response rating (0 to 100 scale) [11]: 70; Galium plant response rating [11]: 50; Kochia plant response rating (0 to 100 scale) (kochia (Kochia scoparia) [12]): 30; Kochia plant response rating (kochia (Kochia scoparia) [12]): 0; Pigweed plant response rating (0 to 100 scale) [13]: 10; Pigweed plant response rating [13]: 10; Ragweed plant response rating (0 to 100 scale) [14]: 30; Ragweed plant response rating [14]: 0; Wheat plant response rating ([15]; Postemergence, 500 g ai/ha): 10; Wheat plant response rating (0 to 100 scale) ([15]; Postemergence, approx. 10 days): 0; Plant response rating, Barnyardgrass (0 to 100 scale, 0 is no effect, 100 is complete control) [16]: 0; Plant response rating, Ducksalad (0 to 100 scale, 0 is no effect, 100 is complete control) [17]: 0; Plant response rating, Rice (0 to 100 scale, 0 is no effect, 100 is complete control) (rice (Oryza sativa)): 0; Plant response rating, Sedge, Umbrella (0 to 100 scale, 0 is no effect, 100 is complete control) [18]: 0 |
